From patent US8415469B2, “Compounds and methods for kinase modulation, and indications therefor” (Plexxikon Inc., priority 2005, dated 2013)

Legend:
Format in all cases: biochemical
Pyk2 = molecular target: T1, Pyk2 (Homo sapiens, UniProt Q14289); experiment: AlphaScreen kinase assay, Pyk2; conditions: read-out: IC50, activity toward kinase Pyk2
T1 construct: purchased Upstate Biotechnology

Ret = molecular target: T2, Ret (Homo sapiens, UniProt P07949); experiment: AlphaScreen kinase assay, Ret; conditions: read-out: IC50, activity toward kinase Ret
T2 construct: P1378.pET-SF BI-PTP RET H661-R1012 HIS; made in house
T2 sequence (P07949 with tags, fused parts or gaps): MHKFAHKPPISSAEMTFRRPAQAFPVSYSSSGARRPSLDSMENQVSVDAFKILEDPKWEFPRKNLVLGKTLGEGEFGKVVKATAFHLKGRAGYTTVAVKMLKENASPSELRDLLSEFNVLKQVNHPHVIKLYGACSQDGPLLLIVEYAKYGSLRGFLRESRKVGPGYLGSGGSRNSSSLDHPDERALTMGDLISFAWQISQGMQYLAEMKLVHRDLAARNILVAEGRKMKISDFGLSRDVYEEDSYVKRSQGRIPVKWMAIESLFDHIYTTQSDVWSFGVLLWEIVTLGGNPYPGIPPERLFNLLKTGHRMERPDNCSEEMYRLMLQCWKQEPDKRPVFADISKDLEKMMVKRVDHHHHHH

Jnk1 = molecular target: T3, Jnk1 (Homo sapiens, UniProt P45983); experiment: AlphaScreen kinase assay, Jnk1; conditions: read-out: IC50, activity toward kinase Jnk1
T3 construct: purchased Upstate Biotechnology

B-Raf V600E = molecular target: T4, B-Raf V600E (Homo sapiens, UniProt P15056, V600E); experiment: AlphaScreen kinase assay, B-Raf V600E; conditions: read-out: IC50, activity toward kinase B-Raf V600E
T4 construct: P4254. pFastBacBD-CDC37 BRAF D437-K722-X, V600E; His6 with pFastBac HT leader (TEV site) (N); made in house; host or cells: Sf9 (baculovirus; chaperone CDC37 co-expressed)
Text: (§1) AlphaScreen assay was used to screen additional kinases. The assay is similarly dependent on the phosphorylation of a peptide substrate. In this assay, an antibody that recognizes phosphorylated substrate is bound to an acceptor bead. The peptide substrate is attached to biotin, which binds to a donor head that contains streptavidin. Thus phosphorylated substrate is bound by antibody and streptavidin, bringing the donor and acceptor heads into close proximity when kinase is not inhibited. The donor produces singlet oxygen which results in emission from the acceptor when they are in close proximity. Conversely, when kinase is inhibited, the donor and acceptor beads are not associated and the emission from the acceptor is reduced.
(§2) AlphaScreen assays were done using compounds dissolved in DMSO to a concentration of 20 mM. The compounds were diluted accordingly to the desired final concentrations in each sample well, using 1:3 serial dilution for a total of 8 concentration points. Plates were prepared such that each kinase reaction is 20 μl in 1× kinase buffer, 5% DMSO and 10 μM ATP. After incubation of the kinase reaction for 1 hour at room temperature, 5 μl of donor beads in stop buffer (50 mM EDTA in 1× kinase buffer) was added, the sample was mixed and incubated for 20 minutes at room temperature before adding 5 μl of acceptor beads in stop buffer. The samples were incubated for 60 minutes at room temperature and the signal per well was read on AlphaQuest reader.

FGFR1 = molecular target: T5, FGFR1 (Homo sapiens, UniProt P11362, C488A/C584S); experiment: AlphaScreen kinase assay, FGFR1; conditions: read-out: IC50, activity toward kinase FGFR
T5 construct: P1351.pET N6 BI-PTP FGFR A458-E765-X C488A, C584S; made in house; host or cells: E. coli (PTP1B co-expressed)
Text: as §1, §2

Src = molecular target: T6, Src (Homo sapiens, UniProt P12931); experiment: AlphaScreen kinase assay, Src; conditions: read-out: IC50, activity toward kinase Src
T6 construct: P1144. pET-N6 BI-PTP SRC V86-L536-X; made in house

Jnk3 = molecular target: T7, Jnk3 (Homo sapiens, UniProt P53779); experiment: AlphaScreen kinase assay, Jnk3; conditions: read-out: IC50, activity toward kinase Jnk3
T7 construct: purchased Upstate Biotechnology

Kit = molecular target: T8, Kit (Homo sapiens, UniProt P10721); experiment: AlphaScreen kinase assay, Kit; conditions: read-out: IC50, activity toward kinase Kit
T8 construct: P1332.N6 BI PTP KIT M552-K948-X COD; His6 (N); made in house; host or cells: E. coli (PTP1B co-expressed)

Fms = molecular target: T9, Fms (Homo sapiens, UniProt P07333); experiment: AlphaScreen kinase assay, Fms; conditions: read-out: IC50, activity toward kinase Fms
T9 construct: purchased Upstate Biotechnology

B-Raf = molecular target: T10, B-Raf (Homo sapiens, UniProt P15056); experiment: AlphaScreen kinase assay, B-Raf; conditions: read-out: IC50, activity toward kinase B-Raf
T10 construct: purchased Upstate Biotechnology

Jnk2 = molecular target: T11, Jnk2 (Homo sapiens, UniProt P45984); experiment: AlphaScreen kinase assay, Jnk2; conditions: read-out: IC50, activity toward kinase Jnk2
T11 construct: purchased Roche Protein Expression Group (Indianapolis, IN)
How it was run: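 Inhibition reads as diminished acceptor emission, since unphosphorylated peptide fails to bridge antibody acceptor beads and streptavidin donor beads. Titration: eight points, 1:3 steps, stocks at 20 mM in DMSO.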

Fak = molecular target: T12, Fak (Homo sapiens, UniProt Q05397); experiment: AlphaScreen kinase assay, Fak; conditions: read-out: IC50, activity toward kinase Fak
T12 construct: P1358.pFastBacHtb FAK S411-Q686-X; His6 with pFastBacHTb leader (TEV site) (N); made in house; host or cells: Sf9 (baculovirus)

c-Raf-1 = molecular target: T13, c-Raf-1 (Homo sapiens, UniProt P04049); experiment: AlphaScreen kinase assay, c-Raf-1; conditions: read-out: IC50, activity toward kinase c-Raf-1
T13 construct: purchased Upstate Biotechnology
Text: as §1, §2

Flt1 = molecular target: T14, Flt1 (Homo sapiens, UniProt P17948); experiment: AlphaScreen kinase assay, Flt1; conditions: read-out: IC50, activity toward kinase Flt1
T14 construct: P1826.pETN6 BI-PTP FLT1 M799-D1165-X WT; His6 (N); made in house; host or cells: E. coli (PTP1B co-expressed)
T14 sequence (P17948 with tags, fused parts or gaps): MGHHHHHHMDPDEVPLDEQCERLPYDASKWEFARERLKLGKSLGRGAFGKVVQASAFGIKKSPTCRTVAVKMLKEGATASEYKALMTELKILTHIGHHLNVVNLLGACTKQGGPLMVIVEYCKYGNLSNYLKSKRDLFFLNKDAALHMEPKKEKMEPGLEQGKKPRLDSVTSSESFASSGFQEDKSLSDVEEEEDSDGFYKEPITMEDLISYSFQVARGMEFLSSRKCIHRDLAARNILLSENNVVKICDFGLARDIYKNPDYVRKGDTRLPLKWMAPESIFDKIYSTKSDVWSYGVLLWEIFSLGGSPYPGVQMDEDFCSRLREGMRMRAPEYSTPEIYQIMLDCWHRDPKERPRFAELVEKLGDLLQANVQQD

Btk = molecular target: T15, Btk (Homo sapiens, UniProt Q06187); experiment: Z'-Lyte FRET kinase assay (Invitrogen), Btk; conditions: read-out: IC50, activity toward kinase Btk
T15 construct: purchased Invitrogen (assay run by Invitrogen)

Measured: IC50

T4 sequence (P15056 with tags, fused parts or gaps V600E): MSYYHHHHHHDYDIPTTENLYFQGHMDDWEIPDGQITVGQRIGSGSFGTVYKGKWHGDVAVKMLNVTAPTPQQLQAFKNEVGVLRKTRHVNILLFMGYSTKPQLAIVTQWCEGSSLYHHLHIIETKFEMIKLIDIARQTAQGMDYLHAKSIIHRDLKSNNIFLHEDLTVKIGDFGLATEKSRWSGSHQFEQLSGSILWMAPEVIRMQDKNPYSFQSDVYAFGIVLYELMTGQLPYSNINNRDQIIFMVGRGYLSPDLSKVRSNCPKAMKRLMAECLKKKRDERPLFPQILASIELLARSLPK
T8 sequence (P10721 with tags, fused parts or gaps): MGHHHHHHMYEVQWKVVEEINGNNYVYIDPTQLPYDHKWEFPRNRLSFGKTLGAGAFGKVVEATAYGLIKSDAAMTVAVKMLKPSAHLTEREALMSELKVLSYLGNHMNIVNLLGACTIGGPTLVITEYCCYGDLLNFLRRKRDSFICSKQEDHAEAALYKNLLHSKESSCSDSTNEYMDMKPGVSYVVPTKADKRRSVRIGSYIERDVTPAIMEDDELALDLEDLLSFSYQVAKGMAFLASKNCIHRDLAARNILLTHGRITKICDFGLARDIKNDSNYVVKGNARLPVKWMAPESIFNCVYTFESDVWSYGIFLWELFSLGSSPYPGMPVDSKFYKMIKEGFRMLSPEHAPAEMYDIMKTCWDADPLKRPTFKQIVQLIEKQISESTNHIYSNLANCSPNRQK
T5 sequence (P11362 458-765 C488A/C584S): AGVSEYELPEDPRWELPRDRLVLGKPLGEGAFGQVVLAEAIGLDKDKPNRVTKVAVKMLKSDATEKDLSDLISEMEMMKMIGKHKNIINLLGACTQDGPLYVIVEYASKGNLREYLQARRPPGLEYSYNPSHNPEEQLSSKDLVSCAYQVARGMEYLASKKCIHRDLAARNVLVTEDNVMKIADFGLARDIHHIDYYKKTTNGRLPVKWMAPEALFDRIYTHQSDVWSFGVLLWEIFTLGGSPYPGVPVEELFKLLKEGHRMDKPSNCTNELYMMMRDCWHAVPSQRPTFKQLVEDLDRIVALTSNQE
T1 sequence (Q14289 whole entry): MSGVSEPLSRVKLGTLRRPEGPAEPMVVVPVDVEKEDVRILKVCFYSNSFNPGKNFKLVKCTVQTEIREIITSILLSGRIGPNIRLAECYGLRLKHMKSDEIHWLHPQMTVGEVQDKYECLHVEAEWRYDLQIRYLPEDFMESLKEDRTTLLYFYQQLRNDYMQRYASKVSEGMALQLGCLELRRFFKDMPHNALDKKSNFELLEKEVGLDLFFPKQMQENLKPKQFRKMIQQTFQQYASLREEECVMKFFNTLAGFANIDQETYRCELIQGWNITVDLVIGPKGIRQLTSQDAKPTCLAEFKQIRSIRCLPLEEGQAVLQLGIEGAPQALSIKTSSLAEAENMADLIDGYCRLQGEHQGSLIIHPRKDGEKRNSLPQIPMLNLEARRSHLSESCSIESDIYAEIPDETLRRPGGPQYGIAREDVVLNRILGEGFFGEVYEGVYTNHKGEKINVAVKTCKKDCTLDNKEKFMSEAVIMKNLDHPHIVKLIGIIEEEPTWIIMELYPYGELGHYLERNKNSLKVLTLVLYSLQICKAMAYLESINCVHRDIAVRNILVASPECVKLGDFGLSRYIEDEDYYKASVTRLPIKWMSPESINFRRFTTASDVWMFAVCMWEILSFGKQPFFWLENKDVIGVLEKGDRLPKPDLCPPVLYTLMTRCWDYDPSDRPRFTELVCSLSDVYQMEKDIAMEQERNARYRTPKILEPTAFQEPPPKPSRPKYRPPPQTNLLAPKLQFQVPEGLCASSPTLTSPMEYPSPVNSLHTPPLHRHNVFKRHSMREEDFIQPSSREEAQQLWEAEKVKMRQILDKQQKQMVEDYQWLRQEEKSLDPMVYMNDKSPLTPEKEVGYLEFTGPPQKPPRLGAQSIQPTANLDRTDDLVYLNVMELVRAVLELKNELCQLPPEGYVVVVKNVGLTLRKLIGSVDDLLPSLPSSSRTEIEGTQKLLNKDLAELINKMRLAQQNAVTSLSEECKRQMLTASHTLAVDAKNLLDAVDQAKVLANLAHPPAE
T9 sequence (P07333 20-972): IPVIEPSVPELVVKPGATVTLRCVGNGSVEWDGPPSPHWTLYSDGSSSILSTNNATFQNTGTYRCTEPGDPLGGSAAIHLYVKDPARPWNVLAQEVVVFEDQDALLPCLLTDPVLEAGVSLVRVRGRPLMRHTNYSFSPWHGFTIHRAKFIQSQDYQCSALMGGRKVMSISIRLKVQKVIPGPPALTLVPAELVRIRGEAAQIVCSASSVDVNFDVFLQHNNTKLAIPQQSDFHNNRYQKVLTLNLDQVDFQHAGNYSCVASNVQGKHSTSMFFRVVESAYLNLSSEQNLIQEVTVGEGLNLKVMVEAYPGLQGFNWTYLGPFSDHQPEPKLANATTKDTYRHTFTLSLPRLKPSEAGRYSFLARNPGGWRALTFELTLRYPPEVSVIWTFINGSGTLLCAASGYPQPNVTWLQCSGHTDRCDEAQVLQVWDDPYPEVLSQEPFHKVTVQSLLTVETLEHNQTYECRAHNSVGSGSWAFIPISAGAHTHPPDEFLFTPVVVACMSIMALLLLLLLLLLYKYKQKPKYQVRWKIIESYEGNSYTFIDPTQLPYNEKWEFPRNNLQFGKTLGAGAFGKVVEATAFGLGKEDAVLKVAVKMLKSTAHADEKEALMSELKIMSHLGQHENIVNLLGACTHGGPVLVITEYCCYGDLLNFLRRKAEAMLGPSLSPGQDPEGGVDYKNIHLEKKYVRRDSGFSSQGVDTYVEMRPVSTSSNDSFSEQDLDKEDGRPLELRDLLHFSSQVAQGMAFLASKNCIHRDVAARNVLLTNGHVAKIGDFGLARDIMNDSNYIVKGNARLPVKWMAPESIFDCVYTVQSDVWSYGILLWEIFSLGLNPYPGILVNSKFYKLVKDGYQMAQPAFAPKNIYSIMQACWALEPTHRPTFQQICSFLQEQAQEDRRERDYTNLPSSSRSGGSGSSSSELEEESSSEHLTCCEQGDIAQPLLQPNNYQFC
T6 sequence (P12931 with tags, fused parts or gaps): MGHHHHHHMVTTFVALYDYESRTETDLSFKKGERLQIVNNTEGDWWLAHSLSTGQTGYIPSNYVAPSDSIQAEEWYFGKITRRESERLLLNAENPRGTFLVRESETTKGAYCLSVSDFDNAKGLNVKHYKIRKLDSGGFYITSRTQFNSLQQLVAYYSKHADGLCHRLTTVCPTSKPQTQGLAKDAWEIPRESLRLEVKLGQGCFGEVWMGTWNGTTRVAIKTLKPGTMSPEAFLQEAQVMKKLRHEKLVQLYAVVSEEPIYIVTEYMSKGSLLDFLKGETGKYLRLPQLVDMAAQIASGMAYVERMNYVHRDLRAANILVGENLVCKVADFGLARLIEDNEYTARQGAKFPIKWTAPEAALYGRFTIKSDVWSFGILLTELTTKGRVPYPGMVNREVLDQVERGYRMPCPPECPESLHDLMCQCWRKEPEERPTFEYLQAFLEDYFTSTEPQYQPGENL
T10 sequence (P15056 whole entry): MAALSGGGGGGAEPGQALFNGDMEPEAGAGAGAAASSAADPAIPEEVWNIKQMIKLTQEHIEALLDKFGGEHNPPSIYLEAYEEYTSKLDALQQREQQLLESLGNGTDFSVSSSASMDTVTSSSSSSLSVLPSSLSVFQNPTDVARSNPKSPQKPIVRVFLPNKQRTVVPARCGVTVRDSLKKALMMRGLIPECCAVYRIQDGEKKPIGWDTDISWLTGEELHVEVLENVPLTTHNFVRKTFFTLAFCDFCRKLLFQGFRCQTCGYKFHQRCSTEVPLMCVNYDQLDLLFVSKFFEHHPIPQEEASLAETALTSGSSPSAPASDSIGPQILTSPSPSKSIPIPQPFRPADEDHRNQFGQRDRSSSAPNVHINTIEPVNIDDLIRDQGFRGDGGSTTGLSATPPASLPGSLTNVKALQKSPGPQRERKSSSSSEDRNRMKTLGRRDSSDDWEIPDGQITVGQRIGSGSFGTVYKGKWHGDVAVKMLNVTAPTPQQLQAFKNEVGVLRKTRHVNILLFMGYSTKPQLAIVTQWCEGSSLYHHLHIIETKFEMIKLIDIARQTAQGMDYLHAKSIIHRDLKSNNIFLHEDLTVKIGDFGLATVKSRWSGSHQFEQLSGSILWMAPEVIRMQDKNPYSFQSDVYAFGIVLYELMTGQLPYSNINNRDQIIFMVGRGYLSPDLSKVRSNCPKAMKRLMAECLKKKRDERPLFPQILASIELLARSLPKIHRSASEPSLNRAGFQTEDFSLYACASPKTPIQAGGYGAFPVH
T7 sequence (P53779 whole entry): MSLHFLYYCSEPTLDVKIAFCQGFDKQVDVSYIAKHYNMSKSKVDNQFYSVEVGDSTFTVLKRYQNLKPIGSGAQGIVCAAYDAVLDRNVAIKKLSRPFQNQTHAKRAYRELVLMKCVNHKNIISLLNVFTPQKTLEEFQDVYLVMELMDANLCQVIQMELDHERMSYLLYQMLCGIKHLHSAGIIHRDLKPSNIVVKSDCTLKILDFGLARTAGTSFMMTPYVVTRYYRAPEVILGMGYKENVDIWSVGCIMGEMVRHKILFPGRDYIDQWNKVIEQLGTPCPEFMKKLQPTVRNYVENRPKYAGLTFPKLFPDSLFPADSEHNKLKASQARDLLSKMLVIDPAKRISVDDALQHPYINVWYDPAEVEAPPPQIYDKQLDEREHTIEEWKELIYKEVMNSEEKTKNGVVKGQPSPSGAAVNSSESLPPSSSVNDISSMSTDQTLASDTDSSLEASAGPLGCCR
T12 sequence (Q05397 411-686): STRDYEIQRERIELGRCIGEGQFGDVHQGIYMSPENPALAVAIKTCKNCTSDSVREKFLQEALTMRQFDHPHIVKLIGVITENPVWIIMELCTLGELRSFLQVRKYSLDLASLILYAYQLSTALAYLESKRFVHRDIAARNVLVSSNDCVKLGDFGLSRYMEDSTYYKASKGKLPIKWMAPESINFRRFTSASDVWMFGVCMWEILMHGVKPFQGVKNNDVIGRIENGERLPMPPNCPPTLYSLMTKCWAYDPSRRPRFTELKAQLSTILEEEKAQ

CC(=O)c1cccc(-c2ccnc3[nH]ccc23)c1 [Compound P-0116]
≤ 10 µM: Pyk2 | Ret

CCCNC(=O)Nc1ccc(F)c(C(=O)c2c[nH]c3ncc(-c4cccnc4)cc23)c1F [Compound P-0774, 1-[2,4-difluoro-3-(5-pyridin-3-yl-1H-pyrrolo[2,3-b]pyridine-3-carbonyl)-phenyl]-3-propyl-urea]
not listed: Pyk2 | Ret | Btk
≤ 10 µM: all other assays above

CCCS(=O)(=O)Nc1ccc(F)c(C(OC)c2c[nH]c3ncc(-c4ccccc4)cc23)c1F (stereo not drawn) [Compound P-0957]
≤ 10 µM: B-Raf V600E | Pyk2 | c-Raf-1

CC(=O)Nc1ccc(F)c(C(O)c2c[nH]c3ncc(-c4cccnc4)cc23)c1F (stereo not drawn) [Compound P-1069]
≤ 10 µM: B-Raf V600E | Pyk2

CCCC(=O)Nc1ccc(F)c(C(O)c2c[nH]c3ncc(OC)cc23)c1F (stereo not drawn) [Compound P-1367]
≤ 10 µM: FGFR1 | Pyk2 | Kit

CCCC(=O)Nc1ccc(F)c(C(OC)c2c[nH]c3ncc(OC)cc23)c1F (stereo not drawn) [Compound P-1368]
≤ 10 µM: B-Raf V600E | Pyk2 | Kit | Fms

Clc1cccc(Nc2ccc3cc[nH]c3n2)c1 [Compound P-1373, (3-Chloro-phenyl)-(1H-pyrrolo[2,3-b]pyridin-6-yl)-amine]
≤ 10 µM: Pyk2 | Flt1

Cc1cc(Nc2ccc3cc[nH]c3n2)no1 [Compound P-1376, (5-Methyl-isoxazol-3-yl)-(1H-pyrrolo[2,3-b]pyridin-6-yl)-amine]
≤ 10 µM: Pyk2 | Kit | Fms

c1ccc(N2CCOCC2)c(Nc2ccc3cc[nH]c3n2)c1 [Compound P-1377, (2-Morpholin-4-yl-phenyl)-(1H-pyrrolo[2,3-b]pyridin-6-yl)-amine]
≤ 10 µM: FGFR1 | Pyk2

Brc1cnc2[nH]cc(Cc3ccccc3OCc3ccccc3)c2c1 [Compound P-1379]
≤ 10 µM: Pyk2

OC(c1ccccc1OCc1ccccc1)c1c[nH]c2ncc(Br)cc12 (stereo not drawn) [Compound P-1380]
≤ 10 µM: FGFR1 | Pyk2 | Kit | Fms

NC(=O)c1cccc(-c2cnc3[nH]cc(Cc4ccccc4OCc4ccccc4)c3c2)c1 [Compound P-1381]
≤ 10 µM: B-Raf V600E | FGFR1 | Pyk2 | Fms

CCCCNC(=O)n1ccc2c(C(=O)c3c[nH]c4ncc(-c5cccnc5)cc34)cccc21 [Compound P-1486, 4-(5-Pyridin-3-yl-1H-pyrrolo[2,3-b]pyridine-3-carbonyl)-indole-1-carboxylic acid butylamide]
not listed: Pyk2 | Ret | c-Raf-1
≤ 10 µM: all other assays above
